Values joined by “and” are separate entries in the source; they are usually repeats but may differ in a detail not shown here. Equal values may be shown once. Read-outs that look alike come from different tables or passages of the source.
Assays:
[1] = molecular target: T1, CDK2–cyclin A (Homo sapiens, UniProt P24941); assay: Lanthascreen kinase binding assay, CDK2; conditions: for Lanthascreen signal, sheet CDK2: raw replicates, experiment r1-r11
T1 construct: purchased Thermo Fisher
Experimental: (§1) Lanthascreen experiments were performed using commercially available reagents (Thermo Fisher) and according to the manufacturer’s instructions.

[2] = molecular target: CDK12–cyclin K (Homo sapiens, UniProt Q9NYV4); assay: Lanthascreen kinase binding assay, CDK12; conditions: for IC50: Supplementary Table 2, read-out: Lanthascreen IC50 [nM] CDK12; for Lanthascreen raw signal, sheet CDK12: series r1, duplicates
Experimental: as §1

[3] = system: cyclin K–eGFP degradation reporter; assay: Cyclin K reporter stability analysis (dual-color cyclin K–eGFP reporter); type: cell-based, human; conditions: source data sheet correlations; read-out: DC50
How it was run: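 First, reporter-bearing HEK293T–Cas9 cells are plated at 1 × 10^6 ml^−1. Next, drug or vehicle is added for 5 h. Finally, geometric-mean eGFP and mCherry signals of round, mCherry-positive cells are measured cytometrically, and their ratio is referenced to the DMSO average.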

[4] = molecular target: T2, CDK12–cyclin K and DDB1 (Homo sapiens, UniProt Q16531+Q9NYV4, K965R); assay: TR-FRET ternary complex formation assay (compound titration); type: binding
T2 construct: His6–CDK12 (a.a. 713–1,052); full-length or beta-propeller B domain deletion (ΔBPB: a.a. 396–705 deleted) constructs of His6–DDB1ΔBPB, StrepII–Avi–DDB1, or His6–Spy–DDB1; made in house; host or cells: Trichoplusia ni High Five insect cells (baculovirus)
How it was run: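 Signal was the ratio of 520 nm to 490 nm fluorescence, measured after a 70 μs delay that reduced background.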

[5] = system: HEK293T cells; assay: Drug sensitivity assay (CellTiter-Glo viability) with or without MLN4924 pretreatment; type: cell-based, human; conditions: for EC50: Homo sapiens, HEK-293T; for Toxicity rescue: MLN4924-mediated cytotoxicity rescue, 10 µM used where n.d.
How it was run: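 HEK293T–Cas9, 0.15 × 10^6 ml^−1; pretreat DMSO vs 100 nM MLN4924; drugs dispensed after 2 h; 3 d exposure; CellTiter-Glo; viability vs DMSO control.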

[6] = molecular target: T3, CDK9–cyclin T (Homo sapiens, UniProt P50750); assay: Lanthascreen kinase binding assay, CDK9; conditions: for Lanthascreen TR-FRET signal (raw ratio), sheet CDK9: first titration set (r1), duplicates
T3 construct: purchased Thermo Fisher
Experimental: as §1

[7] = Lanthascreen, average, Extended Data Fig. 8, read-out: CDK2 IC50
[8] = Supplementary Table 2, read-out: Lanthascreen IC50 [nM] CDK2
[9] = source data sheet correlations, read-out: TR-FRET EC50
[10] = Supplementary Table 2, HEK293T viability, 72 h, compound alone, read-out: Cellular assays EC50
[11] = Supplementary Table 2, read-out: Lanthascreen IC50 [nM] CDK9

CDK12–cyclin K, sequence (Q9NYV4 713-1052): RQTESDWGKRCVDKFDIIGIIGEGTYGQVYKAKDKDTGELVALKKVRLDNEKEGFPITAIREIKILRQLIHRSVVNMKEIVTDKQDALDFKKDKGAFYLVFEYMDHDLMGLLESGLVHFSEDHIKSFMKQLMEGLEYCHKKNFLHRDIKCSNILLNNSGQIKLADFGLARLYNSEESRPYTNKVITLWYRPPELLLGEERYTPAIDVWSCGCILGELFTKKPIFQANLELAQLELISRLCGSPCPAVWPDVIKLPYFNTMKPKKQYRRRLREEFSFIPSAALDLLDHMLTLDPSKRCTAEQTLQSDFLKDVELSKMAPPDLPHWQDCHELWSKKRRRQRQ
CDK12–cyclin K, sequence (O75909 1-267 partner limits assumed): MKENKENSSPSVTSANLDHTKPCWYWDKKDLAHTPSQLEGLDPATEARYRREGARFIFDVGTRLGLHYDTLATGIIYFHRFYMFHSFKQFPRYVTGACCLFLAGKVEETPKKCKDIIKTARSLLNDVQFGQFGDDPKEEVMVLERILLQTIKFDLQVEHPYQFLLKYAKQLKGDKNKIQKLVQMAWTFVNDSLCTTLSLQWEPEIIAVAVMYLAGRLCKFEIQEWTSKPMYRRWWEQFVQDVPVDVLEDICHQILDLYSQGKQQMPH
T3 sequence (P50750 whole entry): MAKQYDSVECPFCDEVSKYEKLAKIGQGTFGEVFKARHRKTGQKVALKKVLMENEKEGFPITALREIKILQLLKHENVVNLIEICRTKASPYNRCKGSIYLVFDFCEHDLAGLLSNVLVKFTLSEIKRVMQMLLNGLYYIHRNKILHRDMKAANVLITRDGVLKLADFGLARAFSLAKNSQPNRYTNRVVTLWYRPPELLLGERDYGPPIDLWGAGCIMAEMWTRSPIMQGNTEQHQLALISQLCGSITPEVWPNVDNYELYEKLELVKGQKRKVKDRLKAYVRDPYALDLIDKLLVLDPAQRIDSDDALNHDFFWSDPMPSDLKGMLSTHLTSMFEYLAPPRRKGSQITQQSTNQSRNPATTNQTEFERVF
T3 sequence (O60563 whole entry partner): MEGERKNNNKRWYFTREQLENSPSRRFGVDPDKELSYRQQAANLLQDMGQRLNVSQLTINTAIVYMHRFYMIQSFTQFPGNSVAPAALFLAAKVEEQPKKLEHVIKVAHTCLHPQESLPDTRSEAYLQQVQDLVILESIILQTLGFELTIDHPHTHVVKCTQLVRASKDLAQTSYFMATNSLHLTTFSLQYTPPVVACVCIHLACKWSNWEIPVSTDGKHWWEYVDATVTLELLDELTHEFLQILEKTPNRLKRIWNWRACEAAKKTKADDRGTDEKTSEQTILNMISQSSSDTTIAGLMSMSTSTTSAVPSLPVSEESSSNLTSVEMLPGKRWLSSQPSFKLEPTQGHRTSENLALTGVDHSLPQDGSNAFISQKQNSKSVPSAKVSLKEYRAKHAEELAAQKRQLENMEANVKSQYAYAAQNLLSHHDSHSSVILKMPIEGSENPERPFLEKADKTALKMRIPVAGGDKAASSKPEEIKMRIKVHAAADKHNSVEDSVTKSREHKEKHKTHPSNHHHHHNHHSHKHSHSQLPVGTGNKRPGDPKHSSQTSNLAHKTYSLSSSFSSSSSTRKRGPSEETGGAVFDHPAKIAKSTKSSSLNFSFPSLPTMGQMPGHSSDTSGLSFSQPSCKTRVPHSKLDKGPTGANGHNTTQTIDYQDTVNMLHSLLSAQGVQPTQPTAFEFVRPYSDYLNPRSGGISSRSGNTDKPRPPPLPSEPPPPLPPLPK
T2 sequence (Q9NYV4 713-1052 K965R): as the sequence (Q9NYV4 713-1052) above, with K253R counted along it
T2 sequence (O75909 1-267 partner): as the sequence (O75909 1-267 partner limits assumed) above
T2 sequence (Q16531 whole entry): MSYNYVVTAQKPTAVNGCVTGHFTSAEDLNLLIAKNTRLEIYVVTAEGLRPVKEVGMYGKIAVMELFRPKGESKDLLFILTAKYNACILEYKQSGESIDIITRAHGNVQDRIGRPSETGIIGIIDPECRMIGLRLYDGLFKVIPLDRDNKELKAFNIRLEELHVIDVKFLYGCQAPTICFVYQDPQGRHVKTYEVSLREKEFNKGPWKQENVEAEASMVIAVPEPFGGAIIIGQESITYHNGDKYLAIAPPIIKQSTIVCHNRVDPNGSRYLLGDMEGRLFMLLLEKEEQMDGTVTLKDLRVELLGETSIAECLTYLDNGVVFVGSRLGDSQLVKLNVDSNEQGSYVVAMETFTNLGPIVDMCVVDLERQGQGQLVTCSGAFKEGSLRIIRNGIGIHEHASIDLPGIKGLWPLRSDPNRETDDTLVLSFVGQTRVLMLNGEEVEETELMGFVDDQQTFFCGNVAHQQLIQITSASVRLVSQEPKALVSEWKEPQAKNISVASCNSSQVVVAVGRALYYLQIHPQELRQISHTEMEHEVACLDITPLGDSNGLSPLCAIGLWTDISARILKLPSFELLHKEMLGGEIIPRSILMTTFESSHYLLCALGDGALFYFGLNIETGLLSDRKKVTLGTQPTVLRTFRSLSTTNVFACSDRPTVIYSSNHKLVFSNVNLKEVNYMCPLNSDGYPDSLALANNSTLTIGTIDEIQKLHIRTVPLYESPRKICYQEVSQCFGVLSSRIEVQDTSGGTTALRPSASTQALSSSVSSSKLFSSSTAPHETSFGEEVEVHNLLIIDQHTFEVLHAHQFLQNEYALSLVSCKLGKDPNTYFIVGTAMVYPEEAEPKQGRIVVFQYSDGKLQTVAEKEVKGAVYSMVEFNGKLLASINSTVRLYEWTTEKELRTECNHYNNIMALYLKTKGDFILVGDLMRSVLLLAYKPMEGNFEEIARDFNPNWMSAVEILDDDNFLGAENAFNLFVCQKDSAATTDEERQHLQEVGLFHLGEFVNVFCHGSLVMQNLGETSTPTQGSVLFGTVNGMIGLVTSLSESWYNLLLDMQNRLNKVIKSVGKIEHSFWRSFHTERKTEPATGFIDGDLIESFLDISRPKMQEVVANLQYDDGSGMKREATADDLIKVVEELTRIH

COc1ccc(C)cc1N1C[C@@H](C(=O)Nc2nc3ccccc3[nH]2)CC1=O [Z11]
Lanthascreen signal, sheet CDK2 ([1]; Compound 1.02544 nM): 0.007579 and 0.009377
Lanthascreen signal, sheet CDK2 ([1]; Compound 3.15521 nM): 0.00995 and 0.009356
Lanthascreen signal, sheet CDK2 ([1]; Compound 9.46563 nM): 0.01093 and 0.01062
Lanthascreen signal, sheet CDK2 ([1]; Compound 31.5521 nM): 0.01004 and 0.01088
Lanthascreen signal, sheet CDK2 ([1]; Compound 99.3891 nM): 0.009456 and 0.01029
Lanthascreen signal, sheet CDK2 ([1]; Compound 315.521 nM): 0.0104 and 0.01024
Lanthascreen signal, sheet CDK2 ([1]; Compound 3155.21 nM): 0.01031 and 0.01162
Lanthascreen signal, sheet CDK2 ([1]; Compound 10002 nM): 0.01102 and 0.01013
IC50 [1, 7]: > 10000 nM
IC50 [1, 8]: > 10000 nM
IC50 [2]: 3220 nM
Lanthascreen raw signal, sheet CDK12 ([2]; compound 1.02544 nM): 0.009169 and 0.008974
Lanthascreen raw signal, sheet CDK12 ([2]; compound 3.15521 nM): 0.009884 and 0.009801
Lanthascreen raw signal, sheet CDK12 ([2]; compound 9.46563 nM): 0.008091 and 0.0101
Lanthascreen raw signal, sheet CDK12 ([2]; compound 31.5521 nM): 0.00922 and 0.009965
Lanthascreen raw signal, sheet CDK12 ([2]; compound 99.3891 nM): 0.01122 and 0.009922
Lanthascreen raw signal, sheet CDK12 ([2]; compound 315.521 nM): 0.009639 and 0.01064
Lanthascreen raw signal, sheet CDK12 ([2]; compound 3155.21 nM): 0.00898 and 0.008785
Lanthascreen raw signal, sheet CDK12 ([2]; compound 10002 nM): 0.007994 and 0.007932
DC50 [3]: 0.436 µM
TR-FRET signal ([4]; compound concentration 3.6 nM): 0.4206 and 0.3705
TR-FRET signal ([4]; compound concentration 4.68 nM): 0.1751 and 0.204
TR-FRET signal ([4]; compound concentration 15.84 nM): 0.7002 and 0.5772
TR-FRET signal ([4]; compound concentration 21.6 nM): 0.3896 and 0.4045
TR-FRET signal ([4]; compound concentration 36 nM): 0.7669 and 0.7566
TR-FRET signal ([4]; compound concentration 62.6401 nM): 1.529 and 1.274
TR-FRET signal ([4]; compound concentration 79.2001 nM): 1.336 and 1.393
TR-FRET signal ([4]; compound concentration 158.4 nM): 1.979 and 2.065
TR-FRET signal ([4]; compound concentration 244.8 nM): 3.0134 and 2.769
TR-FRET signal ([4]; compound concentration 309.6 nM): 2.635 and 2.78
TR-FRET signal ([4]; compound concentration 626.401 nM): 3.319 and 3.352
TR-FRET signal ([4]; compound concentration 993.601 nM): 3.805 and 3.416
TR-FRET signal ([4]; compound concentration 1252.8 nM): 3.754 and 3.678
TR-FRET signal ([4]; compound concentration 2001.6 nM): 4.058 and 3.866
TR-FRET signal ([4]; compound concentration 2448 nM): 3.936 and 3.906
TR-FRET signal ([4]; compound concentration 9936.01 nM): 4.2719 and 4.125
TR-FRET signal ([4]; compound concentration 20016 nM): 4.262 and 4.289
EC50 ([4]; in vitro complex formation, 50 nM CDK12–cyclin K, 100 nM DDB1, text and figures, read-out: TR-FRET EC50): 0.178 ± 0.014 µM
EC50 ([4]; sheet MOESM7, read-out: log TR-FRET EC50 (converted)): 0.178 µM
EC50 [4, 9]: 0.178 µM
EC50 ([5]; Supplementary Fig. 5, HEK293T, CellTiter Glo, 72h, pre-treatment with 100 nM MLN4924, read-out: Viability EC50, with MLN4924): 1290 µM
EC50 [5, 10]: 1.07 µM
Toxicity rescue ([5]; Supplementary Table 2): 838%
IC50 ([6]; Lanthascreen, average, Extended Data Fig. 8, read-out: CDK9 IC50): > 10000 nM
IC50 [6, 11]: > 10000 nM
Lanthascreen TR-FRET signal (raw ratio), sheet CDK9 ([6]; compound 1.02544 nM): 0.0144 and 0.01353
Lanthascreen TR-FRET signal (raw ratio), sheet CDK9 ([6]; compound 3.15521 nM): 0.01322 and 0.01379
Lanthascreen TR-FRET signal (raw ratio), sheet CDK9 ([6]; compound 9.46563 nM): 0.01482 and 0.01443
Lanthascreen TR-FRET signal (raw ratio), sheet CDK9 ([6]; compound 31.5521 nM): 0.01456 and 0.01497
Lanthascreen TR-FRET signal (raw ratio), sheet CDK9 ([6]; compound 99.3891 nM): 0.0144 and 0.01356
Lanthascreen TR-FRET signal (raw ratio), sheet CDK9 ([6]; compound 315.521 nM): 0.01557 and 0.0126
Lanthascreen TR-FRET signal (raw ratio), sheet CDK9 ([6]; compound 3155.21 nM): 0.01348 and 0.01509
Lanthascreen TR-FRET signal (raw ratio), sheet CDK9 ([6]; compound 10002 nM): 0.008815 and 0.01082

COc1cc2nc(CN3CCc4sccc4C3)[nH]c(=O)c2cc1OC [Z12]
Lanthascreen signal, sheet CDK2 ([1]; Compound 1.02544 nM): 0.01113 and 0.009882
Lanthascreen signal, sheet CDK2 ([1]; Compound 3.15521 nM): 0.009971 and 0.01033
Lanthascreen signal, sheet CDK2 ([1]; Compound 9.46563 nM): 0.01229 and 0.009342
Lanthascreen signal, sheet CDK2 ([1]; Compound 31.5521 nM): 0.009577 and 0.009489
Lanthascreen signal, sheet CDK2 ([1]; Compound 99.3891 nM): 0.0109 and 0.009513
Lanthascreen signal, sheet CDK2 ([1]; Compound 315.521 nM): 0.01017 and 0.01118
Lanthascreen signal, sheet CDK2 ([1]; Compound 3155.21 nM): 0.009276 and 0.007116
Lanthascreen signal, sheet CDK2 ([1]; Compound 10002 nM): 0.008712 and 0.007113
IC50 [1, 7]: > 10000 nM
IC50 [1, 8]: > 10000 nM
IC50 [2]: 1940 nM
Lanthascreen raw signal, sheet CDK12 ([2]; compound 1.02544 nM): 0.008768 and 0.008409
Lanthascreen raw signal, sheet CDK12 ([2]; compound 3.15521 nM): 0.009734 and 0.0102
Lanthascreen raw signal, sheet CDK12 ([2]; compound 9.46563 nM): 0.009031 and 0.008491
Lanthascreen raw signal, sheet CDK12 ([2]; compound 31.5521 nM): 0.008872 and 0.01072
Lanthascreen raw signal, sheet CDK12 ([2]; compound 99.3891 nM): 0.01101 and 0.009378
Lanthascreen raw signal, sheet CDK12 ([2]; compound 315.521 nM): 0.008266 and 0.00879
Lanthascreen raw signal, sheet CDK12 ([2]; compound 3155.21 nM): 0.006586 and 0.00831
Lanthascreen raw signal, sheet CDK12 ([2]; compound 10002 nM): 0.00787 and 0.005759
DC50 [3]: 3.49 µM
EC50 [4, 9]: 0.833 µM
EC50 [5, 10]: 1.37 µM
Toxicity rescue ([5]; Supplementary Table 2): 49%
IC50 [6, 11]: 2230 nM
Lanthascreen TR-FRET signal (raw ratio), sheet CDK9 ([6]; compound 1.02544 nM): 0.01363 and 0.01444
Lanthascreen TR-FRET signal (raw ratio), sheet CDK9 ([6]; compound 3.15521 nM): 0.01374 and 0.01202
Lanthascreen TR-FRET signal (raw ratio), sheet CDK9 ([6]; compound 9.46563 nM): 0.01193 and 0.01374
Lanthascreen TR-FRET signal (raw ratio), sheet CDK9 ([6]; compound 31.5521 nM): 0.01293 and 0.01321
Lanthascreen TR-FRET signal (raw ratio), sheet CDK9 ([6]; compound 99.3891 nM): 0.01614 and 0.01565
Lanthascreen TR-FRET signal (raw ratio), sheet CDK9 ([6]; compound 315.521 nM): 0.01216 and 0.01193
Lanthascreen TR-FRET signal (raw ratio), sheet CDK9 ([6]; compound 3155.21 nM): 0.009114 and 0.00834
Lanthascreen TR-FRET signal (raw ratio), sheet CDK9 ([6]; compound 10002 nM): 0.005656 and 0.005947
